Paper PMC11897524 (Frontiers in Pharmacology, 2025)

Columns and labels:
BRDT [1] = target: T1, BRDT (Homo sapiens, UniProt Q58F21); assay: Binding affinity to BET and STAT family members
c-myc mRNA and Ki67 mRNA = assay: RT-qPCR on xenograft tumor tissues; format: in vivo, BALB/c nude mice; conditions: xenograft tumor tissue
Protocol: (§1) This method was performed as previously reported. Briefly, the CAKI-2 cells were seeded into 6-well plates and cultured overnight, and treated with different concentrations of BST-4 for 24 h. RNA was extracted from cells and tissues using Trizol reagent and reverse transcribed using PrimeScriptRTase. cDNA was used for RT-qPCR SYBR Green assays (Takara). The relative levels of c-myc mRNA were calculated as [(c-myc mRNA in the treatment group)/(β-actin mRNA in the treatment group)]/[(c-myc mRNA in the control group)/(β-actin mRNA in the control group).
To further investigate the in vivo effects of BST-4, 6–8 weeks male BALB/c nude mice were obtained by Changzhou Cavens Experimental Animal Co., Ltd. (Changzhou, China). The mice were acclimatized to the laboratory environment for a week before the experiment. The housing conditions were maintained at a temperature of 22°C ± 2°C, a relative humidity of 50%–60%, and a 12-h light/dark cycle. 0.1 mL of CAKI-2cell suspension (1 × 10⁶ cells) was subcutaneously injected into the right flank of each mouse. […] The vehicle group was injected with a vehicle solution consisting of 5% DMSO and PBS. The tumor volume of mice was measured every 2 days and calculated according to the formula: (c × c × d)/2, where c and d represent the minimum diameter and maximum diameter, respectively. […]

c-myc mRNA = assay: RT-qPCR of c-myc mRNA in CAKI-2 cells; format: cell-based, human; conditions: 24 h, different concentrations
Protocol: as §1

ALK = ALK (Homo sapiens, UniProt Q9UM73); assay: SelectScreen Z′-LYTE kinase assay; format: biochemical
Protocol: (§2) The kinase selectivity profile of BST-4 was performed by the SelectScreen kinase profiling service (Thermo Fisher Scientific). Kinase selectivity assay was performed using Z′-LYTE ™ screening protocol kit. Briefly, the test compounds were screened in 1% DMSO (final). For 10-point titrations, perform a 3-fold dilution starting at a starting concentration of 50 µM. Then 2.5 µL 4× test compound, 2.4 µL kinase buffer, 5 µL 2× kinase mixture and 2.5 µL 4× ATP solution was added in black 384-well plate. After shaking for 30 s, the plates were incubated for 60 min at room temperature. Add developing reagent solution and shake the plate for 30 s, then incubate for 1 h at room temperature. The Fluorescence intensity per well was read using a fluorescence plate reader. SelectScreen® Kinase Profiling Service used XLfit from IDBS. The dose response curve was curve fit to model number 205 (sigmoidal dose-response model) and inhibition rates were calculated. 50% inhibition was used as a activity threshold. IC50 values were calculated based on curve fitting.

KDR = KDR (Homo sapiens, UniProt P35968); assay: SelectScreen Z′-LYTE kinase assay; format: biochemical
Protocol: as §2

FLT3 = FLT3 (Homo sapiens, UniProt P36888); assay: SelectScreen Z′-LYTE kinase assay; format: biochemical
Protocol: as §2

SRC = SRC (Homo sapiens, UniProt P12931); assay: SelectScreen Z′-LYTE kinase assay; format: biochemical
Protocol: as §2

NTRK2 = NTRK2 (Homo sapiens, UniProt Q16620); assay: SelectScreen Z′-LYTE kinase assay; format: biochemical
Protocol: as §2

ROS1 = ROS1 (Homo sapiens, UniProt P08922); assay: SelectScreen Z′-LYTE kinase assay; format: biochemical
Protocol: as §2

EGFR = EGFR (Homo sapiens, UniProt P00533); assay: SelectScreen Z′-LYTE kinase assay; format: biochemical
Protocol: as §2

TEC = TEC (Homo sapiens, UniProt P42680); assay: SelectScreen Z′-LYTE kinase assay; format: biochemical
Protocol: as §2

BRD3 [2] = target: T2, BRD3 (Homo sapiens, UniProt Q15059); assay: Binding affinity to BET and STAT family members
STAT4 [3] = target: T3, STAT4 (Homo sapiens, UniProt Q14765); assay: Binding affinity to BET and STAT family members
STAT3 = STAT3 (Homo sapiens, UniProt P40763); assay: Microscale thermophoresis (MST) assay; format: binding; parameters: purchased Abcam
Protocol: The MST experiments were performed using the Monolith NT.115 instrument. BRD4 and STAT3 proteins were labeled with the Lys labeling kit at the final concentration of 100 nM. The compounds, previously suspended in 100% DMSO, were diluted in a buffer containing 20 mM Tris·HCl (pH 7.5), 100 mM NaCl, and 3 mM DTT, achieving a final DMSO concentration of 5%. The compounds were gradient-diluted in 1:1 dilution and starting from 100 μM. The samples were loaded into MST-standard glass capillaries. All the measurements were performed in triplicate using automatically assigned 50% MST power and 20% LED power. Data analysis was performed using GraphPad Prism 7.0 software.

STAT5b = STAT5b (Homo sapiens, UniProt P51692); assay: Inhibitory effect on BET and STAT family members; format: binding
Source text: (§3) TABLE 4 The inhibitory effect of BST-4 on other members of the BET and STAT families. | column: IC50 (μM)

STAT2 = STAT2 (Homo sapiens, UniProt P52630); assay: Inhibitory effect on BET and STAT family members; format: binding
Source text: as §3

STAT1 = STAT1 (Homo sapiens, UniProt P42224); assay: Inhibitory effect on BET and STAT family members; format: binding
Source text: as §3

BRDT [4] = target: T1, BRDT; assay: Inhibitory effect on BET and STAT family members; format: binding
Source text: as §3

BRD2 = BRD2 (Homo sapiens, UniProt P25440); assay: Inhibitory effect on BET and STAT family members; format: binding
Source text: as §3

BRD3 [5] = target: T2, BRD3; assay: Inhibitory effect on BET and STAT family members; format: binding
Source text: as §3

STAT6 = STAT6 (Homo sapiens, UniProt P42226); assay: Inhibitory effect on BET and STAT family members; format: binding
Source text: as §3

STAT5a = STAT5a (Homo sapiens, UniProt P42229); assay: Inhibitory effect on BET and STAT family members; format: binding
Source text: as §3

STAT4 [6] = target: T3, STAT4; assay: Inhibitory effect on BET and STAT family members; format: binding
Source text: as §3

ROS1, sequence (P08922 28-2347): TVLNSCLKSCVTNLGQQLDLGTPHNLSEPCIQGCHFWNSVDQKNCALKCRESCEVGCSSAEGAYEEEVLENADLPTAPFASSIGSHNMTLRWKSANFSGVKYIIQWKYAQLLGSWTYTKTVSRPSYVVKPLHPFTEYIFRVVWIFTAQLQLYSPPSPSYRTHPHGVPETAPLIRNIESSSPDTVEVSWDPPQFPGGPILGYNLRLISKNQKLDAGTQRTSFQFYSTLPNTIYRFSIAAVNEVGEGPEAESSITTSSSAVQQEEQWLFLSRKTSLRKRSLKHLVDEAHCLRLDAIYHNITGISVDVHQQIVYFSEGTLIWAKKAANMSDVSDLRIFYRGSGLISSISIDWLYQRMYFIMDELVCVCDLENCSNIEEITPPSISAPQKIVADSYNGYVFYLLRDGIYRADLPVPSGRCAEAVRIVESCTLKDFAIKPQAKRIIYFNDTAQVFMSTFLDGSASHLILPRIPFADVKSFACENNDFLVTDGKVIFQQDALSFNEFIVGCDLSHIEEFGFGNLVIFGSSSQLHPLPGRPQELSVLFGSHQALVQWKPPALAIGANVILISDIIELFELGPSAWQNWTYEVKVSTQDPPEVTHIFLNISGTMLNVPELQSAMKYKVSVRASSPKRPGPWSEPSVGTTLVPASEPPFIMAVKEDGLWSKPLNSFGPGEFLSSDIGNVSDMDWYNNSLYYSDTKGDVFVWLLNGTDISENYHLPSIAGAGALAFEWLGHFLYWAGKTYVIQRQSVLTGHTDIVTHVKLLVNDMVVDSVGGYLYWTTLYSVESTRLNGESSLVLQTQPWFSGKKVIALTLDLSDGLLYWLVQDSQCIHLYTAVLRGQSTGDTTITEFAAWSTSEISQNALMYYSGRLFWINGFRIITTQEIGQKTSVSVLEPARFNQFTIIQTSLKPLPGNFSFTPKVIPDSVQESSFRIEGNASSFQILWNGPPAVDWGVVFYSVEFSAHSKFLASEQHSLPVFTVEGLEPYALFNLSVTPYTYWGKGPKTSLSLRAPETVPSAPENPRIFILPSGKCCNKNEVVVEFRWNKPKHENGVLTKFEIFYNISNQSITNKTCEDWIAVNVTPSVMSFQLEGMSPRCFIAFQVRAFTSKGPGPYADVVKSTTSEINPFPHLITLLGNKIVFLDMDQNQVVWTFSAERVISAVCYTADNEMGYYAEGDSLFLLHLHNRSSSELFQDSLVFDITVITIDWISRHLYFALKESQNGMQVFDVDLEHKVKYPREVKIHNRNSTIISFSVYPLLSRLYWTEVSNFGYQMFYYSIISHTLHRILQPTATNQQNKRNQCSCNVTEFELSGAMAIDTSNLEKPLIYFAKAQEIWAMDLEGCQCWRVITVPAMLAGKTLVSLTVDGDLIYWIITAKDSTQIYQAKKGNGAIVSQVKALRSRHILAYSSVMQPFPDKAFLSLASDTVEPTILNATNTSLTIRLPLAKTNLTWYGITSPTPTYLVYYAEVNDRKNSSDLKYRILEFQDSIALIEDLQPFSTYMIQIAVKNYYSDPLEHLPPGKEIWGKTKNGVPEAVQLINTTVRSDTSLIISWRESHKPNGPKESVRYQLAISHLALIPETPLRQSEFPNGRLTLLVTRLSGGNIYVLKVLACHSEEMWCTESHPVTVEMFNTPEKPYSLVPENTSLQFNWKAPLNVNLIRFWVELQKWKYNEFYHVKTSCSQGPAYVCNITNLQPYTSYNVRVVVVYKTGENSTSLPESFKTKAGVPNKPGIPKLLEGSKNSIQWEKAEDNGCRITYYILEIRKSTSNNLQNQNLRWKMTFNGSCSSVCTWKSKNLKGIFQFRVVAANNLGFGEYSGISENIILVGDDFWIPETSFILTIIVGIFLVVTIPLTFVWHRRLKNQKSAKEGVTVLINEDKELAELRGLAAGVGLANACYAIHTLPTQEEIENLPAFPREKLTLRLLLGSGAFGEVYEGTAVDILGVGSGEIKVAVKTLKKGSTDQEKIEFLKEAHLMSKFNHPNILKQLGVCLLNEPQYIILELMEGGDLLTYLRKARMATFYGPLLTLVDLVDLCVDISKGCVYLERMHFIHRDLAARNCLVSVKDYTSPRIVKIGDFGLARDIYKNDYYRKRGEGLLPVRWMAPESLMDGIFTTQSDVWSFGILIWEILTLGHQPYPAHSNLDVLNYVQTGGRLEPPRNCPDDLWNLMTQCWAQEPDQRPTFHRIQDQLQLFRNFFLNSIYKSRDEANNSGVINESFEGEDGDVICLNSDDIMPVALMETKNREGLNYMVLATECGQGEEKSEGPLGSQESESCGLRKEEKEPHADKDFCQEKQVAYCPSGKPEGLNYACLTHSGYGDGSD
NTRK2, sequence (Q16620 32-822): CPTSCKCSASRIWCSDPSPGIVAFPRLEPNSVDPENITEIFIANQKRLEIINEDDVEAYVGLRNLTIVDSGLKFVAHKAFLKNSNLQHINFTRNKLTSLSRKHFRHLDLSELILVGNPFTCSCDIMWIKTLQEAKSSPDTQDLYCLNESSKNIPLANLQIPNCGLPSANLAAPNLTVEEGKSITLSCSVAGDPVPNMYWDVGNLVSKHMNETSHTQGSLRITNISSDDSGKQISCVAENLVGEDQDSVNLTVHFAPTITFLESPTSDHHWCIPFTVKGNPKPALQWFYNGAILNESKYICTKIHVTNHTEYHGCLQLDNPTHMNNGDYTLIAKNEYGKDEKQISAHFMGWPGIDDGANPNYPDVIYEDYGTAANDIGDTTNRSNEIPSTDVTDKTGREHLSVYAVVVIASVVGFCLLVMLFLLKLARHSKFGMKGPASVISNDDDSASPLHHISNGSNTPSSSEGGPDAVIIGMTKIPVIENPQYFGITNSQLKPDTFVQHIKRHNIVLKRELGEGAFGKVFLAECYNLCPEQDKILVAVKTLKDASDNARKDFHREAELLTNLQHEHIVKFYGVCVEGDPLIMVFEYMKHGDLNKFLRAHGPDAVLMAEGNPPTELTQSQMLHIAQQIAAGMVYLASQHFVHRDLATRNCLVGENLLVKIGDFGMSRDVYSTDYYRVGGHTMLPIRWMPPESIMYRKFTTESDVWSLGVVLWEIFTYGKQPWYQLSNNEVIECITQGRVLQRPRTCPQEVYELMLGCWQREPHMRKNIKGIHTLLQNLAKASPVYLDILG
TEC, sequence (P42680 whole entry): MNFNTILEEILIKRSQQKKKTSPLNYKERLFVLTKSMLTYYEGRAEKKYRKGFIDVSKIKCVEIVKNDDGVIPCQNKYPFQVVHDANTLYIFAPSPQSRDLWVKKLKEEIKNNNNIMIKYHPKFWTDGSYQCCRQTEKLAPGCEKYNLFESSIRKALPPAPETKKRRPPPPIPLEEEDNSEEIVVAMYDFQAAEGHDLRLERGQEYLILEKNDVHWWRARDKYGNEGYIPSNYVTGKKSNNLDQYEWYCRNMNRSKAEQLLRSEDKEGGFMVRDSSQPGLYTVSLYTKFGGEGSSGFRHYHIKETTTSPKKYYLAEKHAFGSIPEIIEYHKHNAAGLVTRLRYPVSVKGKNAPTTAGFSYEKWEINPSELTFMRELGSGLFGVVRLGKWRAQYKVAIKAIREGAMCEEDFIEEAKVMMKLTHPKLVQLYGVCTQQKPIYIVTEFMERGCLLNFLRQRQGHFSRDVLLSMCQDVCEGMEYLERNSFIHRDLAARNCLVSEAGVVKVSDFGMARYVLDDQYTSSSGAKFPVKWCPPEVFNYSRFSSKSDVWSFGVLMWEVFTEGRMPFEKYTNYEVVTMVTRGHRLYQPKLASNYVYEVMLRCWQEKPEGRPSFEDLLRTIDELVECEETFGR
SRC, sequence (P12931 whole entry): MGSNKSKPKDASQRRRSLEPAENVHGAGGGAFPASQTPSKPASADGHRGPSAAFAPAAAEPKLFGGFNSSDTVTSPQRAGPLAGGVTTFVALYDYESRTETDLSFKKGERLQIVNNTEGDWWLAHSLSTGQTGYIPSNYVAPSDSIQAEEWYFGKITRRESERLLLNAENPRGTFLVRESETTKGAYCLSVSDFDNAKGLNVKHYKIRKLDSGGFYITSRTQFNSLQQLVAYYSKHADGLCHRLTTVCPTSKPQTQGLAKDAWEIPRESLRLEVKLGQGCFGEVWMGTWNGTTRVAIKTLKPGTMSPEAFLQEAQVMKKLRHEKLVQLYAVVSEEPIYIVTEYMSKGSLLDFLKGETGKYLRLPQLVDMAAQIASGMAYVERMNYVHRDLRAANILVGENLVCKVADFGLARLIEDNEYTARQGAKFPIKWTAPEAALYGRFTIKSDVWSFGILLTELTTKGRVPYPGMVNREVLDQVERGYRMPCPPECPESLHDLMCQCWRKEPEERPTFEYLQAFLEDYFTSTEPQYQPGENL
T3 sequence (Q14765 whole entry): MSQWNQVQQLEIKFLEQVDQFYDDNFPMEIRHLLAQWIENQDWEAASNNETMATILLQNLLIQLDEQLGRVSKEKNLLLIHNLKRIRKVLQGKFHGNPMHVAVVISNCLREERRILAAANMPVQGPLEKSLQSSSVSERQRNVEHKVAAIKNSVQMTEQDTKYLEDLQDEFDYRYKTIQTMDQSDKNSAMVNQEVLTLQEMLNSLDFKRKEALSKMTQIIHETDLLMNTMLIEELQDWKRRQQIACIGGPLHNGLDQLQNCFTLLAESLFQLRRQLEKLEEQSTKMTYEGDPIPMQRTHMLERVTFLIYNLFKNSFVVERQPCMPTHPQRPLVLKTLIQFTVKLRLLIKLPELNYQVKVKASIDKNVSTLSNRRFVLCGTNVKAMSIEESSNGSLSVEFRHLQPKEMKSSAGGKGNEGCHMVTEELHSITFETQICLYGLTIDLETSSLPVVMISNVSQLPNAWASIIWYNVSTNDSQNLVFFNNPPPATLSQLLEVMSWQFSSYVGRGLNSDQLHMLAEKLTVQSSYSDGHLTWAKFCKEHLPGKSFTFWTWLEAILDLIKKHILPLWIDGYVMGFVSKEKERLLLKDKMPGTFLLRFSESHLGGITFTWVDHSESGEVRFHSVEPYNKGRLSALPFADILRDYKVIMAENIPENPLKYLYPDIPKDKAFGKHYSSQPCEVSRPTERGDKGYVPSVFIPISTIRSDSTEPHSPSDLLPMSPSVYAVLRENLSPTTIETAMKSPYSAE

For `CCS(=O)(=O)Cc1cnc(Oc2c(F)cc(F)cc2OCCCCOc2ccc(/C=C/c3cc(OC)cc(OC)c3)cc2)c(-c2cc(C)c3c(=O)[nH]ccn23)c1` [BST-4], the Kd (BRDT [1]) was > 10 µM, the “Ki67 mRNA expression level in tumor tissues in vivo” value (c-myc mRNA and Ki67 mRNA) was “downregulated” and the “c-myc mRNA expression level in tumor tissues in vivo” value (c-myc mRNA and Ki67 mRNA) was “downregulated”. For the same compound, the “expression of c-myc mRNA in CAKI-2 cells” value (c-myc mRNA) was “strongly dose-dependent downregulated”, the IC50 (ALK) was > 10 µM and the inhibition at 1 µM (ALK) was 0.72%. For the same compound, the IC50 (KDR) was > 10 µM, the inhibition at 1 µM (KDR) was 1.51% and the IC50 (FLT3) was > 10 µM. The inhibition at 1 µM (FLT3) was 0.52%, the IC50 (SRC) was > 10 µM and the inhibition at 1 µM (SRC) was 3.24%. For the same compound, the IC50 (NTRK2) was > 10 µM, the inhibition at 1 µM (NTRK2) was 1.22% and the IC50 (ROS1) was > 10 µM. The inhibition at 1 µM (ROS1) was 0.97%, the IC50 (EGFR) was > 10 µM and the inhibition at 1 µM (EGFR) was 0.37%. For the same compound, the IC50 (TEC) was > 10 µM, the inhibition at 1 µM (TEC) was 0.67% and the Kd (BRD3 [2]) was > 10 µM. The Kd (STAT4 [3]) was > 10 µM, the “STAT3 binding affinity relative to CJ-1383” value (STAT3; Kd ratio vs CJ-1383, MST) was 211 fold and the Kd (STAT3; MST) was 0.00428 ± 0.00059 µM. The IC50 (STAT5b) was > 10 µM, the IC50 (STAT2) was > 10 µM and the IC50 (STAT1) was > 10 µM. For the same compound, the IC50 (BRDT [4]) was > 10 µM, the IC50 (BRD2) was > 10 µM and the IC50 (BRD3 [5]) was > 10 µM. The IC50 (STAT6) was > 10 µM, the IC50 (STAT5a) was > 10 µM and the IC50 (STAT4 [6]) was > 10 µM.
